[C(1O2)] = modified PNA monomer acting as cytosine, C(pOq) type, 1O2; [A(5)] = modified PNA monomer acting as adenine, A(p) type, p=5; [G(5)] = modified PNA monomer acting as guanine, G(p) type, p=5; {Fethoc} = N-terminal Fethoc cap; {NH2} = C-terminal amide
Tests used:
10-mer complementary DNA = assay: Tm between PNA derivatives and 10-mer complementary DNA (N- or C-terminal); type: binding; settings: uncorrected
Method in brief: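 Tm read by UV at 260 nm for duplexes formed by annealing (90 °C for a minute, slow cooling to ambient) of equimolar 4 μM PNA and complementary 10-mer DNA targeting N- or C-terminal, in 10 mM sodium phosphate, 100 mM NaCl, pH 7.16.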

full-length SCN9A mRNA = assay: SCN9A qPCR by cDNA synthesis with random hexamers in rat L5 DRG cells; type: cell-based; settings: 24 hours
Procedure: “SCN-ASO 30” was evaluated by SCN9A qPCR for its ability to inhibit the expression of the SCN9A mRNA in rat L5 DRG cells. Total RNA was prepared as described in “SCN9A Example 15”, and subjected to cDNA synthesis using random hexamers.
The cDNA solutions were also subjected to qPCR amplification for the GAPDH mRNA. The Ct values of the SCN9A mRNA were normalized against the Ct values of GAPDH mRNA.

[1] = tested on: sodium current in rat L5 DRG neuronal cells; assay: Manual patch clamp sodium current in rat L5 DRG neuronal cells; type: cell-based; settings: rat L5 DRG neuronal cells (L5/L6 ligation), small size, 100 zM, 4 hours
Procedure: “SCN-ASO 30” was evaluated for its ability to inhibit the sodium current in rat L5 DRG neuronal cells stimulated with L5/L6 ligation as provided below.
[Preparation of DRG Neuronal Cells] Male SD rats (6 weeks old) were subjected to tight “L5/L6 ligation”. 7 days later, rats were anesthetized with zoletil/rompun for the extraction of L5 DRG of the ligated side. […]

Nav1.7 protein = assay: Nav1.7 western blot in rat L5 DRG neuronal cells; type: cell-based; settings: rat DRG neuronal cells (L5/L6 ligation)
Procedure: “SCN-ASO 30” was evaluated for its ability to inhibit the expression of Nav1.7 protein in rat DRG neuronal cells as described below.
[Preparation of DRG Neuronal Cells] Male SD rats (7 weeks old) were subjected to tight “L5/L6 ligation”. 7 days later, 4 rats were anesthetized with zoletil/rompun to sample the L5 DRG of the ligated side. The DRGs were pooled and processed to prepare DRG neuronal cells as described in “SCN9A Example 12”.
[ASO Treatment] DRG neuronal cells were treated with “SCN-ASO 30” at 0 (negative control), 10, 100 or 1,000 zM for 24 hours, and then subjected to lysis for western blot against a Nav1.7 antibody (Cat. No. ab85015, Abcam) probing the C-terminal of the Nav1.7 protein. β-actin was probed for reference.

Substance: Fethoc-AA(5)G-TG(5)T-A(5)CC(1O2)-TA(5)A-A(5)G-NH2 (AAGTGTACCTAAAG; all peptide nucleic acid (PNA), [A(5)] at 2, 7, 11, 13, [G(5)] at 5, [C(1O2)] at 9, 5' {Fethoc}, 3' {NH2}; peptide nucleic acid written N to C) [SCN-ASO 30]
- Tm Value, 10-mer DNA against C-Terminal (10-mer complementary DNA): 74.0 °C
- Tm Value, 10-mer DNA against N-Terminal (10-mer complementary DNA): 79.0 °C
- decrease of full-length SCN9A mRNA expression level (random hexamers, normalized against GAPDH) (full-length SCN9A mRNA): 45-75%
- decrease of sodium current (manual patch clamp, normalized against cell size) [1]: ~90%
- full-length Nav1.7 protein band at 220-240K (Nav1.7 protein; 10 zM, 24 hours): detected
- Nav1.7 expression by western blot (Nav1.7 protein; 100 and 1,000 zM, 24 hour): markedly inhibited

Reference: patent publication US12624068B2, “Exon skipping by peptide nucleic acid derivatives” (OliPass Corporation, priority 2016, dated 2026)
